Results reported in US20160115540A1, “PRODRUGS AND DRUGS” (Biogen MA Inc., priority 2013, published 2016).
Where a name gives a salt, the structure may show the parent alone.

System: jejunum
Experiment: Transcriptional profiling on Affymetrix GeneChips, single dose, naïve mice: jejunum
Type: in vivo, C57BL/6 mice
Conditions: 100MMF-vs-Veh
Description: Treated mice were sacrificed at 2, 7, or 12 hours. Tissues (liver, spleen, kidney, jejunum, cortex, hippocampus, striatum and whole blood) were collected and analyzed by transcriptional profiling on mouse Affymetrix GeneChips.
Tissues (liver, spleen, kidney, jejunum, cortex, hippocampus, striatum and whole blood) were collected and analyzed by transcriptional profiling on mouse Affymetrix GeneChips.
Animals were exposed to CO2 and whole blood collected via cardiac puncture. Two 100 μl aliquots of whole blood were collected in 1.5 mL microcentrifuge tubes and snap frozen in liquid nitrogen. Peripheral (liver, spleen, kidney and jejunum) and CNS brain (cerebellum, hippocampus, striatum and cortex) tissues were harvested and snap frozen in liquid nitrogen, with special care taken to collect tissues of similar size and from the same location. All samples were stored at −80° C. until RNA extraction was conducted.
For RNA preparation, frozen tissues were placed in 2 mL RNAse-free 96-well blocks with 1.5 mL QIAzol Lysis Reagent (QIAgen) and a 3.2 mm stainless steel bead (BioSpec Products, Bartlesville, Okla.). Tissues were disrupted for four cycles of 45 seconds in a Mini-Beadbeater (Biospec Products). RNA was extracted in chloroform and the aqueous phase was mixed with an equal volume of 70% ethanol. Extracted RNA was applied to RNeasy 96 plates and purified by the spin method according to the manufacturer's protocol (RNeasy 96 Universal Tissue Protocol, QIAgen, Hilden Germany).
Automated sample amplifications and biotin labelings were carried out using the NuGEN Ovation RNA Amplification system V2 (Cat #3100), Ovation WB reagent (Cat #1300) and Encore Biotin module (Cat #4200) (NuGEN Technologies, Inc, San Carlos, Calif.) according to manufacturer's recommendations using an Arrayplex automated liquid handler (Beckman Coulter, Indianapolis, Ind.). Two micrograms of biotin labeled sscDNA probe were hybridized to Affymetrix GeneChip Affymetrix HT_MG-430_PM plate arrays with modified conditions as described in Allaire et al. Washing and staining of the hybridized arrays were completed as described in the GeneChip Expression analysis technical manual for HT plate arrays using the Genechip® Array Station (Affymetrix, Santa Clara, Calif.) with modifications as described in Allaire et al. The processed GeneChip® plate arrays were scanned using GeneTitan scanner (Affymetrix, Santa Clara, Calif.).
Affymetrix scans were subject to quality control (QC) measures. These tests included a visual inspection of the distribution of raw signal intensities and an assessment of RNA degradation, relative log expression (RLE), and normalized unsealed standard error (NUSE). All sample scans that passed these QC metrics were included in the analysis.
All CEL files were subjected to GC-content-based Robust Multi-array Average (GCRMA) normalization (version 2.20.0) (Irizarry R A, et al. Nucleic Acids Res 2003; 31:e15; Li C, et al. Genome Biol 2001; 2:[…]0032). Expression levels were log (base 2) transformed.
All calculations and analyses were carried out using R (version 2.11.1) and Bioconductor computational tools (Gentleman R. Springer Science+Business Media 2005).

COC(=O)/C=C/C(=O)O [MMF, monomethyl fumarate]
FC Slc2a1 (1426599_PM_a_at) (2 h): 1.53 | FC Slc2a1 (1426600_PM_at) (2 h): 1.68 | FC Slc40a1 (1417061_PM_at) (2 h): 2.73 | FC Slc48a1 1450410_PM_a_at (2 h): 1.62 | FC Slfn2 (1450165_PM_at) (2 h): −1.82 | FC Srxn1 (1425351_PM_at) (2 h): 1.77 | FC St3gal6 (1449078_PM_at) (2 h): 1.52 | FC Tkt (1436605_PM_at) (2 h): 1.73 | FC Tnfaip3 1433699_PM_at (2 h): −1.67 | FC Tox3 (1436600_PM_at) (2 h): 1.81 | FC Ugt2b5 (1419622_PM_at) (2 h): 3.13 | FC Ugt2b35 (1439624_PM_at) (2 h): 3.08 | FC 1110020G09Rik (1437287_PM_at) (7 h): 1.74 | FC 1447411_PM_at (7 h): 1.97 | FC 9130221J17Rik (1443159_PM_at) (7 h): 1.61 | FC 9430069I07Rik (1431672_PM_at) (7 h): 3.66 | FC Abcc2 (1450109_PM_s_at) (7 h): 1.51 | FC Abcc3 (1428988_PM_at) (7 h): 2.26 | FC Acsm5 (1437662_PM_at) (7 h): 1.71 | FC Acss2 (1446542_PM_at) (7 h): 2.06 | FC Akr1b8 (1448894_PM_at) (7 h): 14.16 | FC Akr1c12 (1450455_PM_s_at) (7 h): 1.58 | FC Akr1c13 (1418672_PM_at) (7 h): 1.86 | FC Akr1c19 (1455454_PM_at) (7 h): 2.39 | FC Aldh1a7 (1418601_PM_at) (7 h): 1.86 | FC Areg (1421134_PM_at) (7 h): 2.93 | FC Asns 1451095_PM_at (7 h): 1.60 | FC Blvrb (1451386_PM_at) (7 h): 1.55 | FC Capn13 (1437960_PM_at) (7 h): −1.75 | FC Cbr1 (1460196_PM_at) (7 h): 1.83 | FC Cbr3 (1427912_PM_at) (7 h): 40.98 | FC Ces1e (1419510_PM_at) (7 h): 2.44 | FC Ces1f (1424266_PM_s_at) (7 h): 5.19 | FC Ces1g (1449486_PM_at) (7 h): 9.24 | FC Ddc (1426215_PM_at) (7 h): 2.03 | FC Dppa5a (1416552_PM_at) (7 h): 1.88 | FC Enkur (1428960_PM_at) (7 h): −1.56 | FC Entpd5 (1451765_PM_a_at) (7 h): 1.60 | FC Esd (1438488_PM_at) (7 h): 2.15 | FC Fam162a (1451385_PM_at) (7 h): 1.67 | FC G6pd2 (1422327_PM_s_at) (7 h): 2.06 | FC G6pdx (1448354_PM_at) (7 h): 1.76 | FC Gclc (1424296_PM_at) (7 h): 2.87 | FC Gclc (1455959_PM_s_at) (7 h): 2.48 | FC Gm14446 (1435529_PM_at) (7 h): −1.65 | FC Gpx2 (1449279_PM_at) (7 h): 1.53 | FC Gsr (1421816_PM_at) (7 h): 3.13 | FC Gss (1441931_PM_x_at) (7 h): 2.20 | FC Gss (1448273_PM_at) (7 h): 2.25 | FC Gsta2 (1421040_PM_a_at) (7 h): 9.84 | FC Gsta2 (1421041_PM_s_at) (7 h): 1.90 | FC Gsta3 (1423436_PM_at) (7 h): 5.71 | FC Gsta3 (1423437_PM_at) (7 h): 5.75 | FC Gstm1 (1416416_PM_x_at) (7 h): 3.95 | FC Gstm1 (1425627_PM_x_at) (7 h): 4.80 | FC Gstm1 (1448330_PM_at) (7 h): 4.23 | FC Gstm2 (1416411_PM_at) (7 h): 2.09 | FC Gstm3 (1427473_PM_at) (7 h): 3.46 | FC Gstm3 (1427474_PM_s_at) (7 h): 1.99 | FC Gstm4 (1424835_PM_at) (7 h): 5.75 | FC Gstm6 (1422072_PM_a_at) (7 h): 2.23 | FC Gstm7 (1419072_PM_at) (7 h): 1.97 | FC Htatip2 (1451814_PM_a_at) (7 h): 1.68 | FC Ifit1 (1450783_PM_at) (7 h): −1.95 | FC Matn2 (1419442_PM_at) (7 h): 1.59 | FC Matn2 (1455978_PM_a_at) (7 h): 2.21 | FC Me1 (1416632_PM_at) (7 h): 2.01 | FC Nqo1 (1423627_PM_at) (7 h): 2.63 | FC Pgd 1423706_PM_a_at (7 h): 1.55 | FC Pgm2 (1451149_PM_at) (7 h): 1.54 | FC Pir (1429001_PM_at) (7 h): 5.12 | FC Prss8 (1418320_PM_at) (7 h): 1.75 | FC Rsad2 (1421009_PM_at) (7 h): −1.84 | FC Rsad2 (1436058_PM_at) (7 h): −1.81 | FC Rtp4 (1418580_PM_at) (7 h): −1.61 | FC Setd4 (1425239_PM_at) (7 h): 2.27 | FC Setd4 (1435405_PM_at) (7 h): 1.76 | FC Setd4 (1460373_PM_a_at) (7 h): 1.77 | FC Slc5a4b (1422757_PM_at) (7 h): 1.79 | FC Slc35e3 (1428805_PM_at) (7 h): 1.67 | FC Txnrd1 (1424486_PM_a_at) (7 h): 2.07 | FC Txnrd1 (1424487_PM_x_at) (7 h): 1.93 | FC Ugt2b5 (1419622_PM_at) (7 h): 4.50 | FC Ugt2b35 (1439624_PM_at) (7 h): 3.31 | FC Ugt2b36 (1455595_PM_at) (7 h): 2.50 | FC Acss2 (1446542_PM_at) (12 h): 1.52
